# Results reported in PubChem BioAssay AID252 (DTP/NCI, 2004).
# Several values for one entry are separate records, joined by “and”; a condition that tells them apart may be missing. Equal entries are not always repeated. Toxic doses and inconclusive results are not listed.
# Tested on: BDF1 mice, intracerebral L1210 leukemia, survival T/C
# Assay: NCI In Vivo Anticancer Drug Screen. Data for tumor model L1210 Leukemia (intracerebral) in B6D2F1 (BDF1) mice
# Details: higher = longer survival
# Procedure, shortened: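 Mice carrying transplanted tumour were dosed with compound; survival was recorded and expressed as treated-group value (T) divided by vehicle-control value (C).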
# [1] = endpoint: mean survival time, dose: 8.0 mg/kg/injection, schedule: Q01DX001 (ip), vehicle: saline
# [2] = endpoint: mean survival time, dose: 10.0 mg/kg/injection, schedule: Q01DX009 (ip), vehicle: saline
# [3] = endpoint: mean survival time, dose: 20.0 mg/kg/injection, schedule: Q01DX009 (ip), vehicle: saline
smiles,measurement,setting,value
CC1CCC(NC(=O)N(CCCl)N=O)CC1 (stereo unspecified),T/C,"endpoint: mean survival time, dose: 2.0 mg/kg/injection, schedule: Q01DX001 (ip), vehicle: clinical formulation",100 % of control
same,T/C,"endpoint: mean survival time, dose: 2.0 mg/kg/injection, schedule: Q01DX009 (ip), vehicle: other",117 % of control
same,T/C,"endpoint: mean survival time, dose: 3.13 mg/kg/injection, schedule: Q01DX009 (ip), vehicle: Klucel (hydroxypropylcellulose) (HPC)",112 % of control
same,T/C,"endpoint: mean survival time, dose: 4.0 mg/kg/injection, schedule: Q01DX001 (ip), vehicle: clinical formulation",105 % of control
same,T/C,"endpoint: mean survival time, dose: 4.0 mg/kg/injection, schedule: Q01DX001 (ip), vehicle: saline",103 % of control
same,T/C,"endpoint: mean survival time, dose: 4.3 mg/kg/injection, schedule: Q01DX001 (ip), vehicle: other",104 % of control and 107 % of control
same,T/C,"endpoint: mean survival time, dose: 5.0 mg/kg/injection, schedule: Q01DX001 (ip), vehicle: other",115 % of control
same,T/C,"endpoint: mean survival time, dose: 5.0 mg/kg/injection, schedule: Q01DX009 (ip), vehicle: saline",161 % of control
same,T/C,"endpoint: mean survival time, dose: 5.4 mg/kg/injection, schedule: Q01DX001 (oral), vehicle: other",110 % of control
same,T/C,"endpoint: mean survival time, dose: 8.0 mg/kg/injection, schedule: Q01DX001 (ip), vehicle: Klucel (hydroxypropylcellulose) (HPC)",112 % of control
same,T/C,"endpoint: mean survival time, dose: 8.0 mg/kg/injection, schedule: Q01DX001 (ip), vehicle: clinical formulation",115 % of control
same,T/C,[1],118 % of control
same,T/C,"endpoint: mean survival time, dose: 8.0 mg/kg/injection, schedule: Q01DX009 (ip), vehicle: other",183 % of control
same,T/C,"endpoint: mean survival time, dose: 9.0 mg/kg/injection, schedule: Q01DX001 (ip), vehicle: other",110 % of control and 112 % of control
same,T/C,[2],151 % of control
same,T/C,"endpoint: mean survival time, dose: 12.5 mg/kg/injection, schedule: Q01DX009 (ip), vehicle: Klucel (hydroxypropylcellulose) (HPC)",161 % of control
same,T/C,"endpoint: mean survival time, dose: 16.0 mg/kg/injection, schedule: Q01DX001 (ip), vehicle: saline",153 % of control
same,T/C,"endpoint: mean survival time, dose: 16.0 mg/kg/injection, schedule: Q01DX009 (ip), vehicle: other",113 % of control
same,T/C,"endpoint: mean survival time, dose: 20.0 mg/kg/injection, schedule: Q01DX001 (ip), vehicle: other",188 % of control
same,T/C,[3],98 % of control
same,T/C,"endpoint: mean survival time, dose: 24.0 mg/kg/injection, schedule: Q01DX001 (ip), vehicle: other",175 % of control and 185 % of control
same,T/C,"endpoint: mean survival time, dose: 25.0 mg/kg/injection, schedule: Q01DX009 (ip), vehicle: Klucel (hydroxypropylcellulose) (HPC)",109 % of control
same,T/C,"endpoint: mean survival time, dose: 30.0 mg/kg/injection, schedule: Q01DX001 (ip), vehicle: other",187 % of control and 198 % of control
same,T/C,"endpoint: mean survival time, dose: 32.0 mg/kg/injection, schedule: Q01DX001 (ip), vehicle: clinical formulation",160 % of control
same,T/C,"endpoint: mean survival time, dose: 32.0 mg/kg/injection, schedule: Q01DX001 (oral), vehicle: clinical formulation",102 % of control
same,T/C,"endpoint: mean survival time, dose: 36.0 mg/kg/injection, schedule: Q01DX001 (oral), vehicle: other",238 % of control and 243 % of control and 292 % of control
same,T/C,"endpoint: mean survival time, dose: 40.0 mg/kg/injection, schedule: Q01DX001 (ip), vehicle: other",280 % of control
same,T/C,"endpoint: mean survival time, dose: 45.0 mg/kg/injection, schedule: Q01DX001 (ip), vehicle: other",225 % of control and 251 % of control
same,T/C,"endpoint: mean survival time, dose: 45.0 mg/kg/injection, schedule: Q01DX001 (oral), vehicle: other",306 % of control and 362 % of control
same,T/C,"endpoint: mean survival time, dose: 54.0 mg/kg/injection, schedule: Q01DX001 (oral), vehicle: other",189 % of control and 248 % of control and 357 % of control
same,T/C,"endpoint: mean survival time, dose: 67.0 mg/kg/injection, schedule: Q01DX001 (ip), vehicle: other",168 % of control
same,T/C,"endpoint: mean survival time, dose: 72.0 mg/kg/injection, schedule: Q01DX001 (ip), vehicle: other",209 % of control and 306 % of control
same,T/C,"endpoint: mean survival time, dose: 90.0 mg/kg/injection, schedule: Q01DX001 (oral), vehicle: other",91 % of control
same,T/C,"endpoint: mean survival time, dose: 91.0 mg/kg/injection, schedule: Q01DX001 (oral), vehicle: other",114 % of control
same,T/C,"endpoint: mean survival time, dose: 128.0 mg/kg/injection, schedule: Q01DX001 (ip), vehicle: Klucel (hydroxypropylcellulose) (HPC)",109 % of control
same,T/C,"endpoint: mean survival time, dose: 128.0 mg/kg/injection, schedule: Q01DX001 (ip), vehicle: clinical formulation",103 % of control
same,T/C,"endpoint: mean survival time, dose: 128.0 mg/kg/injection, schedule: Q01DX001 (ip), vehicle: saline",103 % of control
same,T/C,"endpoint: mean survival time, dose: 256.0 mg/kg/injection, schedule: Q01DX001 (ip), vehicle: Klucel (hydroxypropylcellulose) (HPC)",111 % of control
same,T/C,"endpoint: mean survival time, dose: 256.0 mg/kg/injection, schedule: Q01DX001 (oral), vehicle: clinical formulation",112 % of control
same,T/C,"endpoint: median survival time, dose: 2.0 mg/kg/injection, schedule: Q01DX001 (ip), vehicle: clinical formulation",106 % of control
same,T/C,"endpoint: median survival time, dose: 2.0 mg/kg/injection, schedule: Q01DX001 (ip), vehicle: saline",106 % of control
same,T/C,"endpoint: median survival time, dose: 4.0 mg/kg/injection, schedule: Q01DX001 (ip), vehicle: clinical formulation",113 % of control
same,T/C,"endpoint: median survival time, dose: 4.0 mg/kg/injection, schedule: Q01DX001 (ip), vehicle: saline",115 % of control
same,T/C,"endpoint: median survival time, dose: 8.0 mg/kg/injection, schedule: Q01DX001 (ip), vehicle: clinical formulation",122 % of control
same,T/C,"endpoint: median survival time, dose: 16.0 mg/kg/injection, schedule: Q01DX001 (ip), vehicle: saline",178 % of control
same,T/C,"endpoint: median survival time, dose: 32.0 mg/kg/injection, schedule: Q01DX001 (ip), vehicle: clinical formulation",175 % of control
same,T/C,"endpoint: median survival time, dose: 32.0 mg/kg/injection, schedule: Q01DX001 (ip), vehicle: saline",159 % of control
same,T/C,"endpoint: median survival time, dose: 32.0 mg/kg/injection, schedule: Q01DX001 (oral), vehicle: clinical formulation",108 % of control
same,T/C,"endpoint: median survival time, dose: 64.0 mg/kg/injection, schedule: Q01DX001 (oral), vehicle: clinical formulation",150 % of control
same,T/C,"endpoint: median survival time, dose: 128.0 mg/kg/injection, schedule: Q01DX001 (ip), vehicle: clinical formulation",110 % of control
same,T/C,"endpoint: median survival time, dose: 128.0 mg/kg/injection, schedule: Q01DX001 (ip), vehicle: saline",117 % of control
same,T/C,"endpoint: median survival time, dose: 256.0 mg/kg/injection, schedule: Q01DX001 (ip), vehicle: clinical formulation",103 % of control
same,T/C,"endpoint: median survival time, dose: 256.0 mg/kg/injection, schedule: Q01DX001 (ip), vehicle: saline",102 % of control
same,T/C,"endpoint: median survival time, dose: 256.0 mg/kg/injection, schedule: Q01DX001 (oral), vehicle: clinical formulation",118 % of control
same,T/C,"endpoint: median survival time, dose: 512.0 mg/kg/injection, schedule: Q01DX001 (oral), vehicle: clinical formulation",98 % of control
same,T/C,"endpoint: median survival time, dose: 1024.0 mg/kg/injection, schedule: Q01DX001 (oral), vehicle: clinical formulation",83 % of control
CCNC1=C(N2CC2)C(=O)C(NCC)=C(N2CC2)C1=O,T/C,"endpoint: mean survival time, dose: 0.37 mg/kg/injection, schedule: Q01DX009 (ip), vehicle: saline",101 % of control and 100 % of control
same,T/C,"endpoint: mean survival time, dose: 0.75 mg/kg/injection, schedule: Q01DX009 (ip), vehicle: saline",104 % of control and 117 % of control
same,T/C,"endpoint: mean survival time, dose: 1.5 mg/kg/injection, schedule: Q01DX009 (ip), vehicle: saline",124 % of control
Cc1cccc2c(Nc3ccc(NS(C)(=O)=O)cc3)c3ccccc3nc12,T/C,[2],100 % of control
same,T/C,"endpoint: mean survival time, dose: 10.0 mg/kg/injection, schedule: Q01DX009 (sc), vehicle: saline",96 % of control
same,T/C,[3],110 % of control
same,T/C,"endpoint: mean survival time, dose: 20.0 mg/kg/injection, schedule: Q01DX009 (sc), vehicle: saline",101 % of control
same,T/C,"endpoint: mean survival time, dose: 40.0 mg/kg/injection, schedule: Q01DX009 (ip), vehicle: saline",112 % of control
same,T/C,"endpoint: mean survival time, dose: 40.0 mg/kg/injection, schedule: Q01DX009 (sc), vehicle: saline",97 % of control
same,T/C,"endpoint: mean survival time, dose: 80.0 mg/kg/injection, schedule: Q01DX009 (ip), vehicle: saline",87 % of control
same,T/C,"endpoint: mean survival time, dose: 80.0 mg/kg/injection, schedule: Q01DX009 (sc), vehicle: saline",104 % of control
O=NN(CCF)C(=O)NC1CS(=O)(=O)CS(=O)(=O)C1,T/C,"endpoint: mean survival time, dose: 11.0 mg/kg/injection, schedule: Q01DX001 (ip), vehicle: other",113 % of control
same,T/C,"endpoint: mean survival time, dose: 17.0 mg/kg/injection, schedule: Q01DX001 (ip), vehicle: other",117 % of control
same,T/C,"endpoint: mean survival time, dose: 25.0 mg/kg/injection, schedule: Q01DX001 (ip), vehicle: other",120 % of control
O=NN(CCCl)C(=O)Nc1ccc(Oc2ccc(NC(=O)N(CCCl)N=O)cc2)cc1,T/C,"endpoint: mean survival time, dose: 440.0 mg/kg/injection, schedule: Q01DX001 (ip), vehicle: carboxymethylcellulose (CMC)",116 % of control
same,T/C,"endpoint: mean survival time, dose: 670.0 mg/kg/injection, schedule: Q01DX001 (ip), vehicle: carboxymethylcellulose (CMC)",119 % of control
same,T/C,"endpoint: mean survival time, dose: 1500.0 mg/kg/injection, schedule: Q01DX001 (ip), vehicle: carboxymethylcellulose (CMC)",122 % of control
CCN(CC)c1ccc2cc3ccc(=[N+](CC)CC)cc-3oc2c1,T/C,[1],97 % of control
same,T/C,"endpoint: mean survival time, dose: 13.0 mg/kg/injection, schedule: Q01DX001 (ip), vehicle: saline",96 % of control
same,T/C,"endpoint: mean survival time, dose: 19.0 mg/kg/injection, schedule: Q01DX001 (ip), vehicle: saline",100 % of control
